Each structure is given as a SMILES string. Calls of active or inactive are those of the source. The rule behind the calls is not given here.

Among the data in ChEMBL document CHEMBL3108684, “Discovery and development of potent and selective inhibitors of histone methyltransferase g9a” (ACS Med Chem Lett, 2014) are IC50, Activity and inhibition values, retold here.

Experiment [1] concerns the target T1, Histone-lysine N-methyltransferase EHMT2 (Homo sapiens, UniProt Q96KQ7).
T1 sequence (Q96KQ7 whole entry): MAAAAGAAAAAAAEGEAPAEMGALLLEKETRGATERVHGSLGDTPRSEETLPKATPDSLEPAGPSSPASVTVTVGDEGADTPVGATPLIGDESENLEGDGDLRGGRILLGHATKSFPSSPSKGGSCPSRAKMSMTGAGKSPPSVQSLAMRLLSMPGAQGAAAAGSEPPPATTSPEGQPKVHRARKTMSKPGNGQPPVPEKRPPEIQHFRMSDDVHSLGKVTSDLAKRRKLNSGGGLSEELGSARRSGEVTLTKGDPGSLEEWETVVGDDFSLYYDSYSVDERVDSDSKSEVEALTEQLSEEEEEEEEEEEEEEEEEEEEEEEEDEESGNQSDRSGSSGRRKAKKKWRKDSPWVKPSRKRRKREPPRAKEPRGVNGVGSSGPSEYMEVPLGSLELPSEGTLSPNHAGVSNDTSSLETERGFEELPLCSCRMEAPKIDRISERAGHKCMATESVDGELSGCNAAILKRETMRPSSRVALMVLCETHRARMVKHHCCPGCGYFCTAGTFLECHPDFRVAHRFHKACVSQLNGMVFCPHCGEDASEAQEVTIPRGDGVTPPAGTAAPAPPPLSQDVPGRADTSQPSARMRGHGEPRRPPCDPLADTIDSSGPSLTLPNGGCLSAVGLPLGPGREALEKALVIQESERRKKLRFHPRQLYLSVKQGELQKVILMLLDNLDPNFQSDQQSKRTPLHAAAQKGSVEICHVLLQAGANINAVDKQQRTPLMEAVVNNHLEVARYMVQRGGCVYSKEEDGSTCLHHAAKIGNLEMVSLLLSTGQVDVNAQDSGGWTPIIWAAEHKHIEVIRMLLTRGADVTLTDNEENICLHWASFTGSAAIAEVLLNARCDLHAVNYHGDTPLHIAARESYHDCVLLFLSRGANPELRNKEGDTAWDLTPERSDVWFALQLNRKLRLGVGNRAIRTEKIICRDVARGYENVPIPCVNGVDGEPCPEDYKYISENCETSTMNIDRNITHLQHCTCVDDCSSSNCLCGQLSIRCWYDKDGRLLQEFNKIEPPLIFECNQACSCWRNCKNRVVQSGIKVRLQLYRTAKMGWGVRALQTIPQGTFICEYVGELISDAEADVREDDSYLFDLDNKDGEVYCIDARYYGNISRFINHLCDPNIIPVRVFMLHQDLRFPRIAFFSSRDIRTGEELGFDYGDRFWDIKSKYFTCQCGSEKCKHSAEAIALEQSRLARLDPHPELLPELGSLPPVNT
As to the kind of experiment: Inhibition of G9a (unknown origin) using biotinylated-histone H3(1-21) peptide as substrate after 3 hrs by AlphaLISA assay. In general terms: Bead proximity is the source of the signal in Alpha formats.

The test system of experiment [2] is PC-3. The experiment can be described thus: Effect on total H3K36Me2 protein level in human PC3 cells at 0.01 to 10 uM after 72 hrs by Western blotting analysis. The class given is functional, cell-based. In general terms: A western blot detects proteins with antibodies after separation by electrophoresis.
The test system of experiment [3] is PC-3. The experiment can be described thus: Effect on total H3K27Me3 protein level in human PC3 cells at 0.01 to 10 uM after 72 hrs by Western blotting analysis. Format: functional, cell-based.
Experiment [4] deals with PC-3. The experiment can be described thus: Effect on total histone 3 protein level in human PC3 cells at 0.01 to 10 uM after 72 hrs by Western blotting analysis. Format: functional, cell-based.
Experiment [5] deals with Histone-lysine N-methyltransferase EHMT2 (Homo sapiens) (UniProt Q96KQ7). The following applies: PC-3, 3 uM.
Description: Inhibition of G9a in human PC3 cells assessed as reduction in H3K9Me2 level at 3 uM after 72 hrs by Western blotting analysis relative to control
Experiment [6] deals with Histone-lysine N-methyltransferase EHMT1 (Homo sapiens, UniProt Q9H9B1). The experiment can be described thus: Inhibition of GLP (unknown origin)-mediated incorporation of methyl group from [3H]-SAM into peptide substrate by scintillation proximity assay. Background: Scintillation proximity formats need no separation of bound from free tracer.
For experiment [7], the target named is Histone-lysine N-methyltransferase NSD2 (Homo sapiens) (UniProt O96028). The experiment can be described thus: Inhibition of WHSC1 (unknown origin)-mediated incorporation of methyl group from [3H]-SAM into peptide substrate up to 50 uM after 1 hr by scintillation proximity assay.
Experiment [8] concerns the target Histone-lysine N-methyltransferase NSD3 (Homo sapiens) (UniProt Q9BZ95). The experiment can be described thus: Inhibition of WHSC1L (unknown origin)-mediated incorporation of methyl group from [3H]-SAM into peptide substrate up to 50 uM after 1 hr by scintillation proximity assay.
Experiment [9] concerns the target Histone-lysine N-methyltransferase, H3 lysine-79 specific (Homo sapiens) (UniProt Q8TEK3). As to the kind of experiment: Inhibition of DOT1L (unknown origin)-mediated incorporation of methyl group from [3H]-SAM into peptide substrate up to 50 uM after 1 hr by scintillation proximity assay.
Experiment [10] has as its target Histone-lysine N-methyltransferase SETD2 (Homo sapiens) (UniProt Q9BYW2). The experiment can be described thus: Inhibition of SETD2 (unknown origin)-mediated incorporation of methyl group from [3H]-SAM into peptide substrate up to 50 uM by scintillation proximity assay.
Experiment [11] deals with N-lysine methyltransferase SMYD2 (Homo sapiens) (UniProt Q9NRG4). As to the kind of experiment: Inhibition of SMYD2 (unknown origin)-mediated incorporation of methyl group from [3H]-SAM into peptide substrate up to 50 uM by scintillation proximity assay.
Experiment [12] deals with Histone-lysine N-methyltransferase KMT5C (Homo sapiens) (UniProt Q86Y97). As to the kind of experiment: Inhibition of SUV420H2 (unknown origin)-mediated incorporation of methyl group from [3H]-SAM into peptide substrate up to 50 uM by scintillation proximity assay.
The target of experiment [13] is Histone-lysine N-methyltransferase KMT5B (Homo sapiens) (UniProt Q4FZB7). The experiment can be described thus: Inhibition of SUV420H1 (unknown origin)-mediated incorporation of methyl group from [3H]-SAM into peptide substrate up to 50 uM by scintillation proximity assay.
Experiment [14] has as its target DNA (cytosine-5)-methyltransferase 1 (Homo sapiens) (UniProt P26358). As to the kind of experiment: Inhibition of DNMT1 (unknown origin)-mediated incorporation of methyl group from [3H]-SAM into dsDNA substrate up to 50 uM by scintillation proximity assay.
In experiment [15] the target is Histone-lysine N-methyltransferase SMYD3 (Homo sapiens) (UniProt Q9H7B4). The experiment can be described thus: Inhibition of SMYD3 (unknown origin)-mediated incorporation of methyl group from [3H]-SAM into peptide substrate up to 50 uM by scintillation proximity assay.
Experiment [16] deals with EZH2/SUZ12/EED complex (Homo sapiens) (UniProt Q15910+O75530+Q15022). As to the kind of experiment: Inhibition of EZH2/SUZ12/EED complex (unknown origin)-mediated incorporation of methyl group from [3H]-SAM into peptide substrate up to 50 uM by scintillation proximity assay. The class given is protein-complex assay.
The target in experiment [17] is EZH1/SUZ12/EED/AEBP2/RBBP4 complex (Homo sapiens) (UniProt Q92800+O75530+Q15022+Q6ZN18+Q09028). The experiment can be described thus: Inhibition of EZH1/EED/SUZ12/AEBP2/RBBP4 complex (unknown origin)-mediated incorporation of methyl group from [3H]-SAM into peptide substrate up to 50 uM by scintillation proximity assay. The class given is protein-complex assay.
In experiment [18] the target is N-lysine methyltransferase KMT5A (Homo sapiens) (UniProt Q9NQR1). The experiment can be described thus: Inhibition of SETD8 (unknown origin)-mediated incorporation of methyl group from [3H]-SAM into peptide substrate up to 50 uM by scintillation proximity assay.
In experiment [19] the target is Protein arginine N-methyltransferase 8 (Homo sapiens) (UniProt Q9NR22). The experiment can be described thus: Inhibition of PRMT8 (unknown origin)-mediated incorporation of methyl group from [3H]-SAM into peptide substrate up to 50 uM by scintillation proximity assay.
Experiment [20] has as its target Protein arginine N-methyltransferase 6 (Homo sapiens) (UniProt Q96LA8). As to the kind of experiment: Inhibition of PRMT6 (unknown origin)-mediated incorporation of methyl group from [3H]-SAM into peptide substrate up to 50 uM by scintillation proximity assay.
The target in experiment [21] is PRMT5/MEP50 complex (Homo sapiens) (UniProt O14744+Q9BQA1). The experiment can be described thus: Inhibition of PRMT5/MEP50 complex (unknown origin)-mediated incorporation of methyl group from [3H]-SAM into peptide substrate up to 50 uM by scintillation proximity assay. The class given is protein-complex assay.
In experiment [22] the target is Protein arginine N-methyltransferase 3 (Homo sapiens) (UniProt O60678). As to the kind of experiment: Inhibition of PRMT3 (unknown origin)-mediated incorporation of methyl group from [3H]-SAM into peptide substrate up to 50 uM by scintillation proximity assay.
For experiment [23], the target named is Protein arginine N-methyltransferase 1 (Homo sapiens) (UniProt Q99873). The experiment can be described thus: Inhibition of PRMT1 (unknown origin)-mediated incorporation of methyl group from [3H]-SAM into peptide substrate up to 50 uM by scintillation proximity assay.
The target of experiment [24] is Histone-lysine N-methyltransferase SETD7 (Homo sapiens) (UniProt Q8WTS6). The experiment can be described thus: Inhibition of SETD7 (unknown origin)-mediated incorporation of methyl group from [3H]-SAM into peptide substrate up to 50 uM by scintillation proximity assay.
In experiment [25] the target is MLL1/ASH2L/RBBP5/WDR5 complex (Homo sapiens) (UniProt P61964+Q03164+Q9UBL3+Q15291). The experiment can be described thus: Inhibition of MLL1/ASH2L/RBBP5/WDR5 complex (unknown origin)-mediated incorporation of methyl group from [3H]-SAM into peptide substrate up to 50 uM by scintillation proximity assay. The class given is protein-complex assay.
Experiment [26] deals with Histone-lysine N-methyltransferase SETDB1 (Homo sapiens) (UniProt Q15047). The experiment can be described thus: Inhibition of SETDB1 (unknown origin)-mediated incorporation of methyl group from [3H]-SAM into peptide substrate up to 50 uM by scintillation proximity assay.
Experiment [27] has as its target Histone-lysine N-methyltransferase SUV39H2 (Homo sapiens) (UniProt Q9H5I1). As to the kind of experiment: Inhibition of SUV39H2 (unknown origin)-mediated incorporation of methyl group from [3H]-SAM into peptide substrate up to 50 uM by scintillation proximity assay.

Histone-lysine N-methyltransferase SMYD3 (Homo sapiens), sequence (Q9H7B4 whole entry): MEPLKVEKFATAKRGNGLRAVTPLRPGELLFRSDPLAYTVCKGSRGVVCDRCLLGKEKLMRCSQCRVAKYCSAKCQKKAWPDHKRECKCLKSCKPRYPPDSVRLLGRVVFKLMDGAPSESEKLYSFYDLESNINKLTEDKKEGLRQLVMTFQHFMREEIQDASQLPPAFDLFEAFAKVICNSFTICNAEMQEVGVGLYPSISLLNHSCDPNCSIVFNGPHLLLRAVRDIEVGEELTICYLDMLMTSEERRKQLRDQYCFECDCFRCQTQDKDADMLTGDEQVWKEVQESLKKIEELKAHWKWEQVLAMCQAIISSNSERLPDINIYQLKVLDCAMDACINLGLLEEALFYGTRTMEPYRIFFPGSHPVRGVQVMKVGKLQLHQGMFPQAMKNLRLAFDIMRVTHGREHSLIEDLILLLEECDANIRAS
Histone-lysine N-methyltransferase NSD2 (Homo sapiens), sequence (O96028 whole entry): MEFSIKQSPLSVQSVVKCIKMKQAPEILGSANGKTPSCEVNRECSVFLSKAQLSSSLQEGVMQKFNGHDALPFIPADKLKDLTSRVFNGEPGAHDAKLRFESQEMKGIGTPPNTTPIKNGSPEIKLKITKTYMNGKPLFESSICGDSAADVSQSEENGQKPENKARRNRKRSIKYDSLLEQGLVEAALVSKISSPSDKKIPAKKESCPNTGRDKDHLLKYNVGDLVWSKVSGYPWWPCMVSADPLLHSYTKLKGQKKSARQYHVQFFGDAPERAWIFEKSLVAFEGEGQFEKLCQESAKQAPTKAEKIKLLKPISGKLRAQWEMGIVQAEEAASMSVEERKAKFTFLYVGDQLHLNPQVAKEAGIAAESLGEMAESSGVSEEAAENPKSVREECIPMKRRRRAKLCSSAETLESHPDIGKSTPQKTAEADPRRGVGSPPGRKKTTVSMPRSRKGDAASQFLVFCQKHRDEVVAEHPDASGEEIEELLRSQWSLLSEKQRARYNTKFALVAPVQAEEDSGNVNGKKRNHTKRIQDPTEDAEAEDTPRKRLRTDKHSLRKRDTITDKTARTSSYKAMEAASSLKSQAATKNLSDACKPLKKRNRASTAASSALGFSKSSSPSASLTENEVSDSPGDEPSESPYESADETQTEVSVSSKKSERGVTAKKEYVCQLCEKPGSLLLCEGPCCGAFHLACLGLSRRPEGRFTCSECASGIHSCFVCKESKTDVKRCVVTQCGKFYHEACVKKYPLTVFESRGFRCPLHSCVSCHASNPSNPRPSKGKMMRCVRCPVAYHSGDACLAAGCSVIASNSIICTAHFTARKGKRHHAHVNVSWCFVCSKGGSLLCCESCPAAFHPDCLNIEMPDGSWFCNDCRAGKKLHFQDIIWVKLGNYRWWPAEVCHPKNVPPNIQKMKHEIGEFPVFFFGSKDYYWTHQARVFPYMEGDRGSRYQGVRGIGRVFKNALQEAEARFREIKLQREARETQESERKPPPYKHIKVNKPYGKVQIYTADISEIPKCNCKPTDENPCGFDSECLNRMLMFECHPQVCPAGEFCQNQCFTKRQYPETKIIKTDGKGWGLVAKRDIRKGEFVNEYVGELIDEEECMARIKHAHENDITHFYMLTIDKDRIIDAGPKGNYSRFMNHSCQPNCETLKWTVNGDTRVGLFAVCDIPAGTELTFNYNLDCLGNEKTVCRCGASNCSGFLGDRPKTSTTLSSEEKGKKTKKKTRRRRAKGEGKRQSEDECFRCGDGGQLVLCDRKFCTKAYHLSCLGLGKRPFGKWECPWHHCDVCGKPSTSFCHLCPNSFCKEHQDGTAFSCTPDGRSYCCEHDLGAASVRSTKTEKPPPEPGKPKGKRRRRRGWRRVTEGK
Histone-lysine N-methyltransferase SUV39H2 (Homo sapiens), sequence (Q9H5I1 whole entry): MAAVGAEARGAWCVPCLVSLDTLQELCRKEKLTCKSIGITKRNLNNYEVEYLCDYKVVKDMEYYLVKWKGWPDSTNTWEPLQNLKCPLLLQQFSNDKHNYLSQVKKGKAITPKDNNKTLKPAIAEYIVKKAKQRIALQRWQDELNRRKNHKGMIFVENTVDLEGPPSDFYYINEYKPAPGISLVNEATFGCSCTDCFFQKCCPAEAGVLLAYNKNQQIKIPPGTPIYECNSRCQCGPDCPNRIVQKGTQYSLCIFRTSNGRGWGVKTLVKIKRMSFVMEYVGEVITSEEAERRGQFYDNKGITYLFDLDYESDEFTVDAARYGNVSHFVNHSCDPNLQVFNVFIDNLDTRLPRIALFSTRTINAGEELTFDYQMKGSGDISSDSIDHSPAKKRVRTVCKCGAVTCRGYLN
Protein arginine N-methyltransferase 6 (Homo sapiens), sequence (Q96LA8 whole entry, looked up): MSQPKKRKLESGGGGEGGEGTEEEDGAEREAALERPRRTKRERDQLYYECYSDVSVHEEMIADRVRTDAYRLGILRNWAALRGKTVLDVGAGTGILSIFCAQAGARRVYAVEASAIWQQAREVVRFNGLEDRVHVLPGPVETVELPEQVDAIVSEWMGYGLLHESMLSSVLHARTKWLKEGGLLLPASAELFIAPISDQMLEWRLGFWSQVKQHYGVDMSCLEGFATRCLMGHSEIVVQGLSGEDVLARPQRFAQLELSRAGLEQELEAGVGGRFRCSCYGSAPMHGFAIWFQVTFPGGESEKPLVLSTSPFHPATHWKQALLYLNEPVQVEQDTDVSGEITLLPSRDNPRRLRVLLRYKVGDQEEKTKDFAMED
DNA (cytosine-5)-methyltransferase 1 (Homo sapiens), sequence (P26358 whole entry): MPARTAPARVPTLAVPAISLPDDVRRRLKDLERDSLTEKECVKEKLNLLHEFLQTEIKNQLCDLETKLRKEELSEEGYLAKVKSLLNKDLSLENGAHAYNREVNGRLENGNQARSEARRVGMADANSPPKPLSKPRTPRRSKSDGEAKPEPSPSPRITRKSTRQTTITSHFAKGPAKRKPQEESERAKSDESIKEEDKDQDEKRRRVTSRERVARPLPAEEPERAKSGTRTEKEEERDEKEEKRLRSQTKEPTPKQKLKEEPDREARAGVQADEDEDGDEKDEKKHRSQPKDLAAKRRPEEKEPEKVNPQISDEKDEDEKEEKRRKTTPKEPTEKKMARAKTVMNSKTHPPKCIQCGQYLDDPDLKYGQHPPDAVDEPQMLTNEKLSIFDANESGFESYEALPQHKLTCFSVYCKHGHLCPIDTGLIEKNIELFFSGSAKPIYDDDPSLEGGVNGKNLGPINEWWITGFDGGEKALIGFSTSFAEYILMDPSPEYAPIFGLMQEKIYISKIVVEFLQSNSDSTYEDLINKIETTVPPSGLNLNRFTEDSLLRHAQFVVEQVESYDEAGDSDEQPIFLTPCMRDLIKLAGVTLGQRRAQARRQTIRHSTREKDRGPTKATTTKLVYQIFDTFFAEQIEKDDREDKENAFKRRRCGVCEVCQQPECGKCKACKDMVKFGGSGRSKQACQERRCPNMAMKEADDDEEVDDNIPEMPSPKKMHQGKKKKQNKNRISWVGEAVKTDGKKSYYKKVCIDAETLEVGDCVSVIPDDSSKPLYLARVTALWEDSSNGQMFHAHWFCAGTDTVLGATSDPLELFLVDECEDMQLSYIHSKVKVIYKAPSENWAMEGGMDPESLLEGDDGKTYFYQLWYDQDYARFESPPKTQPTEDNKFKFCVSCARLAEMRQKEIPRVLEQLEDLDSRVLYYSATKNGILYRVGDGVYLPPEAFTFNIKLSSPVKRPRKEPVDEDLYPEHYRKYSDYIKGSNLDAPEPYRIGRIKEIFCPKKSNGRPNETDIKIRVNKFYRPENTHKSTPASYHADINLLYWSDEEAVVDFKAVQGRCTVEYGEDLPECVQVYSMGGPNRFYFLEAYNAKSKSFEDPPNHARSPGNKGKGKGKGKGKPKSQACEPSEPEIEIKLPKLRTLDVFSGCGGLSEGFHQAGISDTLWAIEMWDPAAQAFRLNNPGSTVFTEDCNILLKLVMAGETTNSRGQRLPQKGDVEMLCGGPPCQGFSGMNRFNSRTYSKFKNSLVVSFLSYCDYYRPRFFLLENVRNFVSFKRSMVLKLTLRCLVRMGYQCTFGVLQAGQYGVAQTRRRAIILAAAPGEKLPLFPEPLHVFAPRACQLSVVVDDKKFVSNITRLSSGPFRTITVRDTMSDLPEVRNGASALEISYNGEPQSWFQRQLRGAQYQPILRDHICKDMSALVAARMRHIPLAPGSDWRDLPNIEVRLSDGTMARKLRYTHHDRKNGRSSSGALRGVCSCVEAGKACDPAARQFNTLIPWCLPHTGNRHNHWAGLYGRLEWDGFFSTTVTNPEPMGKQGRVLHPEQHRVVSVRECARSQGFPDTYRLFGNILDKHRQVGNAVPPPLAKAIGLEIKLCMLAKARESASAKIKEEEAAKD
Protein arginine N-methyltransferase 3 (Homo sapiens), sequence (O60678 2-531 limits assumed): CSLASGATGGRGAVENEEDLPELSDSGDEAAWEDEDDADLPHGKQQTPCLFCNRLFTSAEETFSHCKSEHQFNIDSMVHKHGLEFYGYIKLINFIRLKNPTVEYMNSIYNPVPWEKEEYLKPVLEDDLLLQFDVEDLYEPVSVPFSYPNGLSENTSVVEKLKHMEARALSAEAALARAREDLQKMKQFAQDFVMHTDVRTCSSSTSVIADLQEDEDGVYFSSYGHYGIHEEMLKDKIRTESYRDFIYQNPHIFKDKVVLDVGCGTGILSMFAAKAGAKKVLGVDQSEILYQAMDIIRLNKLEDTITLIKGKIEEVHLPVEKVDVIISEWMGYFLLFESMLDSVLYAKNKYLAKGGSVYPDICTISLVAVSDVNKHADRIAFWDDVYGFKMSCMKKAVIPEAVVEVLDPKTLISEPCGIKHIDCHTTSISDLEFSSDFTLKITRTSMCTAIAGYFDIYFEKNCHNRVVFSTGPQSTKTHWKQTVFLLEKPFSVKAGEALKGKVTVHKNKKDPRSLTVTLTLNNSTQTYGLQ

In experiment [1], `COc1cc2cc(N)[nH]c2cc1OC` had an IC50 of 14400 nM.
In the case of `COc1cc2c(NC3CCN(C(C)C)CC3)nc(C3CCCCC3)nc2cc1OCCCN1CCCC1`, the outcome with PC-3 [2], in the experiment with PC-3 [3] and in the experiment on PC-3 [4] was inactive. The molecule also showed an inhibition in [5] of 50%.
As for `COc1cc2c(cc1OCCCN1CCCC1)N=C(N)C21CCC1`, the result in the experiment with PC-3 [2], in the experiment with PC-3 [3] and in the experiment with PC-3 [4] was inactive. This molecule also came in with a half-maximal inhibitory concentration (IC50) in experiment [6] of 38 nM. Besides, the inhibition entry in experiment [7], in [8], in experiment [9], in [10], in experiment [11] and in experiment [12] was “inactive” each time. Further, the inhibition result in experiment [13], in [14], in [15], in experiment [16], in [17] and in experiment [18] was “inactive” throughout. Moreover, the inhibition result in [19], in experiment [20], in [21], in [22], in [23] and in experiment [24] was “inactive” in each case. In addition, the inhibition entry in experiment [25], in experiment [26] and in experiment [27] was “inactive” each time. In [5], this molecule returned an inhibition of 50%.
As to `COc1cc2c(cc1OCCCN1CC[C@H](F)C1)N=C(N)C21CCC1`, the IC50 in experiment [1] amounted to 18 nM.
In turn, `COc1cc2c(cc1OCCCN1CC[C@@H](F)C1)N=C(N)C21CCC1` registered an IC50 in experiment [1] of 3.7 nM.

By IC50 is commonly meant the point on the concentration scale where inhibition reaches its midpoint. Low readings indicate inhibition by little substance, high ones a need for much substance. In general, inhibition refers to the share of the control response that was lost under treatment.
